In PubChem BioAssay (NCI):
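Compound exposure: 48 hours, 5 concentrations, 96-well plates. GI50 is the concentration that inhibits growth by half. The concentration for full growth arrest is given as TGI.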

How the values were obtained:
Test in all cases: NCI-60 cell line screen, 48 h
KM12 colon = system: KM12 colon
SF-539 CNS = system: SF-539 CNS
SN12C renal = system: SN12C renal
HOP-62 NSCLC = system: HOP-62 NSCLC
786-0 renal = system: 786-0 renal
NCI-H460 lung = system: NCI-H460 lung
MDA-MB-231 breast = system: MDA-MB-231 breast
IGROV1 ovarian = system: IGROV1 ovarian

Compound	GI50 (KM12 colon)	TGI (KM12 colon)	GI50 (SF-539 CNS)	TGI (SF-539 CNS)	GI50 (SN12C renal)	TGI (SN12C renal)	GI50 (HOP-62 NSCLC)	TGI (HOP-62 NSCLC)	GI50 (786-0 renal)	TGI (786-0 renal)	GI50 (NCI-H460 lung)	TGI (NCI-H460 lung)	GI50 (MDA-MB-231 breast)	TGI (MDA-MB-231 breast)	GI50 (IGROV1 ovarian)	TGI (IGROV1 ovarian)
ClCc1ccccc1Cn1cnc2c(Cl)ncnc21	16.6 µM	33.2 µM	10.7 µM	24.2 µM	3.37 µM	8.72 µM	2.52 µM	6.03 µM	17.7 µM	38.4 µM	15.4 µM	44.5 µM	3.04 µM	7.41 µM		
O=C1C(=O)c2ccccc2C(O)=C1CCCc1ccc(C2CCCCC2)cc1	4.16 µM	17.9 µM	5.78 µM	28.7 µM	6.35 µM	> 100 µM	7.2 µM	23 µM	3.73 µM	43.5 µM	2.78 µM	10.3 µM	10.4 µM	31 µM		
O=C(c1ccccc1)c1c(C(F)(F)F)n([O-])c2cc(C(F)(F)F)ccc2[n+]1=O	1.6 µM	3.17 µM	1.74 µM	3.17 µM	1.83 µM	4.4 µM	1.83 µM	3.5 µM	0.655 µM	1.4 µM	1.68 µM	3.42 µM	1.6 µM	3.11 µM	0.207 µM	0.489 µM
COc1cc(OC)c(OC)cc1/C=C/c1cnnc2ccccc12		> 10 µM		> 10 µM		> 10 µM		> 10 µM		> 10 µM		> 10 µM		> 10 µM		> 10 µM
Cn1nc(C(F)(F)F)c(-c2cc(C(F)(F)F)cc(C(F)(F)F)c2)c1-c1ccc(OCc2ccc(Cl)cc2)cc1O	2.64 µM	10.7 µM	2.1 µM	5.94 µM	1.96 µM	10.3 µM	2.82 µM	8.57 µM	1.63 µM	3.28 µM	2.16 µM	5.5 µM	2.15 µM	5.69 µM	2.71 µM	12.5 µM
O=c1oc2cc(OC/C(=N/O)c3ccc(F)cc3)ccc2c2ccccc12	21.2 µM	53.5 µM	20.1 µM	36.4 µM	20.1 µM	37.3 µM	18.1 µM	34.2 µM	11.7 µM	25 µM	16.9 µM	35.2 µM	14.8 µM	30.3 µM	23.6 µM	42 µM
N#C/C(=N\Nc1ccccc1)C(=O)Nc1cc(-c2ccccc2)nn1-c1ccccc1	2.97 µM	> 100 µM	3.3 µM	19.7 µM	2.74 µM	> 100 µM	2.84 µM	49.9 µM	3.04 µM	16.3 µM	2.72 µM	22.1 µM	3.34 µM	> 100 µM	4.49 µM	> 100 µM
Clc1ccc2nc(CI)c(CI)nc2c1	6.07 µM	17.6 µM	2.46 µM	6.31 µM	2.94 µM	8.62 µM	28.7 µM	> 56.3 µM	4.07 µM		10.1 µM	27.1 µM	2.67 µM	7.58 µM	2.73 µM	8.36 µM
COC(=O)C(=O)C(C(=O)C(=O)Nc1ccccc1OC)c1nc2ccc([N+](=O)[O-])cc2[nH]c1=O (configuration not stated)		> 100 µM		> 100 µM		> 100 µM		> 100 µM		> 100 µM		> 100 µM		> 100 µM		> 100 µM
NC(N)=NC(N)=NCCCc1ccco1	109 µM	> 500 µM	108 µM	268 µM	87.2 µM	253 µM	82.7 µM	196 µM	83.5 µM	265 µM	143 µM	> 500 µM	68.8 µM	198 µM	> 500 µM	> 500 µM
Cc1[nH]c(N)nc(=S)c1CCC(=O)O		> 100 µM		> 100 µM		> 100 µM		> 100 µM		> 100 µM		> 100 µM		> 100 µM		> 100 µM
O=C(/C=C1\C(=O)N(Cc2ccccc2)c2ccccc21)c1ccc(OCCN2CCCCC2)cc1	5.9 µM	20.8 µM	2.07 µM	4.14 µM	1.9 µM	4.03 µM	18.4 µM	32.4 µM	1.58 µM	3.06 µM	3.57 µM	11.9 µM	1.92 µM	3.88 µM	1.76 µM	3.55 µM
CC(=O)NC(CSC1=C2NC(=O)\C=C/C=C/C=C\C(C)C(O)CC(=O)/C(C)=C\CC(O)/C=C/C(C)C(O)C(C)C=C(C)C(=O)c3c(O)c(C)cc(c3C1=O)C2=O)C(=O)O (configuration not stated)		> 100 µM		> 100 µM		> 100 µM		> 100 µM		> 100 µM		> 100 µM		82.7 µM		> 100 µM
O=C(c1ccco1)c1c(C(F)(F)F)n([O-])c2cc(C(F)(F)F)ccc2[n+]1=O	0.516 µM	1.19 µM	1.27 µM	2.61 µM	1.29 µM	3.45 µM	0.484 µM	1.08 µM	0.479 µM	0.998 µM	0.537 µM	1.8 µM	1.08 µM	2.67 µM	0.822 µM	2.52 µM
CC(=O)O[C@H]1C(=O)[C@@]2(C)[C@H]([C@H](OC(=O)c3ccccc3)[C@]3(O)C[C@H](OC(=O)[C@H](OC(=O)OC[C@H]4COC(C)(C)O4)[C@@H](NC(=O)c4ccccc4)c4ccccc4)C(C)=C1C3(C)C)[C@]1(OC(C)=O)CO[C@@H]1C[C@@H]2O	0.00943 µM	> 33.3 µM	0.0579 µM	16.7 µM	0.0483 µM	> 33.3 µM	0.0596 µM	> 33.3 µM	0.122 µM	> 33.3 µM	0.00601 µM	> 33.3 µM	0.0736 µM	> 7.74 µM	0.0494 µM	> 33.3 µM
Cc1ccc2c(c1)C(=O)c1c-2c(OCCCN(C)C)nc2ccccc12	1.22 µM	2.72 µM	1.53 µM	2.99 µM	2.67 µM	17.7 µM	2.52 µM	16 µM	2.98 µM	18.1 µM	0.976 µM	3.2 µM	1.64 µM	5.45 µM	1.74 µM	9.94 µM
CC(C)=CC(=O)N[C@H]1CC[C@]2(C)C3CC[C@]4(C)C(C(C)N(C)C)=CCC4C3CCC2[C@H]1O (some centres not stated)	3.48 µM	14.2 µM	1.59 µM	3.38 µM	5.27 µM	19.1 µM	2.61 µM	7.49 µM	2.85 µM	9.23 µM	1.87 µM	3.75 µM	3.34 µM	9.79 µM	8.5 µM	25.3 µM

Compound	GI50 (KM12 colon)	TGI (KM12 colon)	GI50 (SF-539 CNS)	TGI (SF-539 CNS)	GI50 (SN12C renal)	TGI (SN12C renal)	GI50 (HOP-62 NSCLC)	TGI (HOP-62 NSCLC)	GI50 (786-0 renal)	TGI (786-0 renal)	GI50 (NCI-H460 lung)	TGI (NCI-H460 lung)	GI50 (MDA-MB-231 breast)	TGI (MDA-MB-231 breast)	GI50 (IGROV1 ovarian)	TGI (IGROV1 ovarian)
CN(C)CCCC1(c2ccc(F)cc2)OCc2cc(-c3cc4ccccc4s3)ccc21 (configuration not stated)	1.74 µM	3.45 µM	1.7 µM	3.09 µM	1.57 µM	2.94 µM	1.6 µM	3 µM	1.76 µM	3.37 µM	1.93 µM	3.67 µM	1.52 µM	2.95 µM	1.14 µM	2.46 µM
O=C(C#Cc1ccccc1)C1=Cc2ccccc2OC1		9.67 µM				> 100 µM		29.3 µM		6.17 µM		23.7 µM		10.5 µM		6.37 µM
COc1ccc(/C(C#N)=C/c2cc(OC)c(OC)c(OC)c2)cc1	12.7 µM	> 100 µM	16.1 µM	58 µM	27.2 µM	> 100 µM	34.3 µM	> 100 µM	41.3 µM	> 100 µM	29.6 µM	> 100 µM	14.1 µM	> 100 µM	29.2 µM	> 100 µM
COC1=CC(c2ccc[nH]2)=N/C1=C\c1[nH]c(C)c(CC(=O)OCc2ccccc2)c1C	0.272 µM	2.28 µM					0.374 µM	2.27 µM	0.299 µM	1.19 µM	0.327 µM	1.72 µM	0.144 µM	0.859 µM	0.325 µM	1.34 µM
O=C(CI)Nc1ccc(O)c2ccccc12	1.9 µM	3.69 µM	1.8 µM	4.47 µM	1.61 µM	3.3 µM	2.27 µM	5.14 µM	1.73 µM	3.27 µM	2.13 µM	4.71 µM	2.59 µM	6.69 µM	0.296 µM	0.926 µM
C=C1C(=O)O[C@H]2[C@H]1CC/C(COC(=O)CCCc1c[nH]c3ccccc13)=C\CC[C@@]1(C)O[C@@H]21	1.89 µM	4.31 µM	1.63 µM	3.07 µM	1.9 µM	4.44 µM	6.54 µM	19.6 µM	1.6 µM	3.2 µM	4.54 µM	19.2 µM	1.78 µM	3.7 µM	1.63 µM	3.61 µM
C=C1C(=O)O[C@H]2[C@H]1CC/C(Cn1cc(-c3ccc(F)cc3)nn1)=C\CC[C@@]1(C)O[C@@H]21	1.7 µM	3.43 µM	0.271 µM	1.08 µM	1.64 µM	3.79 µM	3.04 µM	12.1 µM	1.06 µM	2.36 µM	3.66 µM	14 µM	1.22 µM	2.65 µM	1.17 µM	2.64 µM
CC(=O)OC12c3ccccc3-c3ccccc3C1C(C(=O)O)C2C(=O)O (configuration not stated)		> 10 µM		> 10 µM		> 10 µM		> 10 µM		> 10 µM		> 10 µM		> 10 µM		> 10 µM
Nc1ccc(COC(O)CN2CCCCC2)cc1[N+](=O)[O-] (configuration not stated)		> 100 µM		> 100 µM		> 100 µM				> 100 µM		> 100 µM		> 100 µM		> 100 µM
Cc1c(Cl)cccc1NC(=O)/C=C/c1ccccc1		> 100 µM		> 100 µM		> 100 µM		> 100 µM		> 100 µM		> 100 µM		96.3 µM		> 100 µM
CC(=O)/C=C/C1=C(c2csc3ccccc23)c2ccccc2CC1	14.1 µM	33.8 µM	26.4 µM	71 µM	32.6 µM	> 100 µM	44.5 µM	> 100 µM	35.7 µM	> 100 µM			22.8 µM	69.5 µM	15.4 µM	> 100 µM
C[C@H]1CNC(=O)c2cnn3ccc(nc23)N[C@H](C)c2cc(F)ccc2O1		> 100 µM	0.743 µM	3.79 µM	0.815 µM	12.8 µM	1.03 µM	> 21.5 µM	0.495 µM	2.11 µM	0.946 µM	25.1 µM	0.514 µM	13 µM	0.292 µM	1.92 µM
COC(=O)c1c2c(c(C)[n+]([O-])c1C)C(=O)C=C(NCc1cccc(Cl)c1)C2=O	0.2 µM	1.69 µM	0.525 µM	1.49 µM	0.298 µM	1.02 µM	1.13 µM	2.8 µM	1.44 µM	3.64 µM	0.381 µM	1.6 µM	0.261 µM	2.77 µM	0.221 µM	1.09 µM
Cc1ccc(S(=O)(=O)OC(COC(=O)c2ccccc2)C(OS(=O)(=O)c2ccc(C)cc2)C(OS(=O)(=O)c2ccc(C)cc2)C(COC(=O)c2ccccc2)OS(=O)(=O)c2ccc(C)cc2)cc1 (configuration not stated)		> 100 µM		> 100 µM		> 100 µM		> 100 µM		> 100 µM		> 100 µM				> 10 µM
O=C(Nc1ccc(F)cc1)Nc1ccc(Br)c(C(F)(F)F)c1	1.96 µM	7.92 µM	2.58 µM	8.43 µM	2.91 µM	11.5 µM			2.42 µM	8.17 µM	2.53 µM	10.4 µM	2.18 µM	5.33 µM	3.58 µM	15.2 µM
Nc1nc(SCc2ccccc2Cl)cc(C(=O)O)n1		> 100 µM				> 100 µM		> 100 µM		> 100 µM		> 100 µM		> 100 µM		> 100 µM
COc1ccc2c(c1OC)C(C(Cl)(Cl)Cl)N1CCc3cc4c(cc3C1=C2)OCO4 (configuration not stated)		20.3 µM		> 100 µM		> 100 µM				55.5 µM		55.3 µM		> 100 µM		98.2 µM
